Values after ≈ are worked out from the molar mass of the structure shown.
Tests used:
[1] = tested on: Pseudomonas aeruginosa; assay: Antibacterial activity against Pseudomonas aeruginosa PAO1 in low salt containing media by Mueller-Hinton broth based assay; format: functional
[2] = tested on: Escherichia coli; assay: Potentiation of rifampicin-induced antibacterial activity against Escherichia coli […] assessed as rifampicin MIC at 16 microg/ml in high concentration of Ca++ and Mg++ containing media by Mueller-Hinton broth based assay; format: functional; details: dose 16 µg/ml
[3] = tested on: Pseudomonas aeruginosa; assay: Potentiation of rifampicin-induced antibacterial activity against Pseudomonas aeruginosa PAO1 assessed as rifampicin MIC in low salt containing media by Mueller-Hinton broth based assay; format: functional
[4] = tested on: Acinetobacter baumannii; assay: Potentiation of rifampicin-induced antibacterial activity against multidrug resistant Acinetobacter baumannii LAC-4 assessed as fold change in rifampicin MIC at 1/4 MIC in low salt containing media by Mueller-Hinton broth based assay; format: functional
[5] = tested on: Escherichia coli; assay: Potentiation of rifampicin-induced antibacterial activity against Escherichia coli […] assessed as fold change in rifampicin MIC at 2 to 8 microg/ml in high concentration of Ca++ and Mg++ containing media by Mueller-Hinton broth based assay; format: functional; details: dose 2-8 µg/ml
[6] = tested on: Escherichia coli; assay: Potentiation of rifampicin-induced antibacterial activity against Escherichia coli ATCC 25922 assessed as rifampicin MIC at 16 microg/ml in high concentration of Ca++ and Mg++ containing media by Mueller-Hinton broth based assay; format: functional; details: dose 16 µg/ml
[7] = tested on: Acinetobacter baumannii; assay: Potentiation of rifampicin-induced antibacterial activity against Acinetobacter baumannii ATCC 17978 assessed as rifampicin MIC in low salt containing media by Mueller-Hinton broth based assay; format: functional
[8] = tested on: Acinetobacter baumannii; assay: Potentiation of rifampicin-induced antibacterial activity against Acinetobacter baumannii ATCC 17978 assessed as fold change in rifampicin MIC in low salt containing media by Mueller-Hinton broth based assay; format: functional
[9] = tested on: Escherichia coli; assay: Potentiation of rifampicin-induced antibacterial activity against Escherichia coli […] assessed as rifampicin MIC at 2 to 8 microg/ml in high concentration of Ca++ and Mg++ containing media by Mueller-Hinton broth based assay; format: functional; details: dose 2-8 µg/ml
[10] = tested on: Escherichia coli; assay: Antibacterial activity against Escherichia coli ATCC 25922 in low salt containing media by Mueller-Hinton broth based assay; format: functional
[11] = Cytotoxicity against HEK293 cells assessed as cell viability at 9 uM relative to control; format: toxicity, cell-based; details: human, read-out: Activity
[12] = tested on: Escherichia coli; assay: Antibacterial activity against Escherichia coli ATCC 25922 in high concentration of Ca++ and Mg++ containing media by Mueller-Hinton broth based assay; format: functional
[13] = tested on: Escherichia coli; assay: Potentiation of rifampicin-induced antibacterial activity against Escherichia coli ATCC 25922 assessed as fold change in rifampicin MIC at 16 microg/ml in high concentration of Ca++ and Mg++ containing media by Mueller-Hinton broth based assay; format: functional; details: dose 16 µg/ml
[14] = tested on: Pseudomonas aeruginosa; assay: Potentiation of rifampicin-induced antibacterial activity against Pseudomonas aeruginosa PAO1 assessed as fold change in rifampicin MIC at 2 to 8 microg/ml in high concentration of Ca++ and Mg++ containing media by Mueller-Hinton broth based assay; format: functional; details: dose 2-8 µg/ml
[15] = tested on: Escherichia coli; assay: Antibacterial activity against Escherichia coli […] in high concentration of Ca++ and Mg++ containing media by Mueller-Hinton broth based assay; format: functional
[16] = tested on: Escherichia coli; assay: Potentiation of rifampicin-induced antibacterial activity against Escherichia coli ATCC 25922 assessed as fold change in rifampicin MIC in low salt containing media by Mueller-Hinton broth based assay; format: functional
[17] = tested on: Escherichia coli; assay: Potentiation of rifampicin-induced antibacterial activity against Escherichia coli ATCC 25922 assessed as rifampicin MIC at 2 to 8 microg/ml in high concentration of Ca++ and Mg++ containing media by Mueller-Hinton broth based assay; format: functional; details: dose 2-8 µg/ml
[18] = tested on: Escherichia coli; assay: Potentiation of rifampicin-induced antibacterial activity against Escherichia coli clinical isolate 94474 assessed as fold change in rifampicin MIC at 1/4 MIC in low salt containing media by Mueller-Hinton broth based assay; format: functional
[19] = tested on: Pseudomonas aeruginosa; assay: Potentiation of rifampicin-induced antibacterial activity against Pseudomonas aeruginosa PAO1 assessed as rifampicin MIC at 2 to 8 microg/ml in high concentration of Ca++ and Mg++ containing media by Mueller-Hinton broth based assay; format: functional; details: dose 2-8 µg/ml
[20] = tested on: Acinetobacter baumannii; assay: Antibacterial activity against Acinetobacter baumannii 92247 in high concentration of Ca++ and Mg++ containing media by Mueller-Hinton broth based assay; format: functional
[21] = tested on: Acinetobacter baumannii; assay: Antibacterial activity against Acinetobacter baumannii ATCC 17978 in high concentration of Ca++ and Mg++ containing media by Mueller-Hinton broth based assay; format: functional
[22] = tested on: Acinetobacter baumannii; assay: Potentiation of rifampicin-induced antibacterial activity against Acinetobacter baumannii 92247 assessed as fold change in rifampicin MIC at 2 to 8 microg/ml in high concentration of Ca++ and Mg++ containing media by Mueller-Hinton broth based assay; format: functional; details: dose 2-8 µg/ml
[23] = tested on: Pseudomonas aeruginosa; assay: Potentiation of rifampicin-induced antibacterial activity against Pseudomonas aeruginosa PAO1 assessed as fold change in rifampicin MIC in low salt containing media by Mueller-Hinton broth based assay; format: functional
[24] = tested on: Acinetobacter baumannii; assay: Potentiation of rifampicin-induced antibacterial activity against Acinetobacter baumannii 92247 assessed as rifampicin MIC at 2 to 8 microg/ml in high concentration of Ca++ and Mg++ containing media by Mueller-Hinton broth based assay; format: functional; details: dose 2-8 µg/ml
[25] = tested on: Acinetobacter baumannii; assay: Potentiation of rifampicin-induced antibacterial activity against Acinetobacter baumannii 92247 assessed as fold change in rifampicin MIC at 16 microg/ml in high concentration of Ca++ and Mg++ containing media by Mueller-Hinton broth based assay; format: functional; details: dose 16 µg/ml
[26] = tested on: Escherichia coli; assay: Potentiation of rifampicin-induced antibacterial activity against Escherichia coli clinical isolate 94393 assessed as fold change in rifampicin MIC at 1/4 MIC in low salt containing media by Mueller-Hinton broth based assay; format: functional
[27] = tested on: Escherichia coli; assay: Potentiation of rifampicin-induced antibacterial activity against Escherichia coli […] assessed as fold change in rifampicin MIC at 16 microg/ml in high concentration of Ca++ and Mg++ containing media by Mueller-Hinton broth based assay; format: functional; details: dose 16 µg/ml
[28] = tested on: Escherichia coli; assay: Potentiation of rifampicin-induced antibacterial activity against Escherichia coli ATCC 25922 assessed as rifampicin MIC in low salt containing media by Mueller-Hinton broth based assay; format: functional
[29] = tested on: Acinetobacter baumannii; assay: Potentiation of rifampicin-induced antibacterial activity against multidrug resistant Acinetobacter baumannii clinical isolate 110193 assessed as fold change in rifampicin MIC at 1/4 MIC in low salt containing media by Mueller-Hinton broth based assay; format: functional
[30] = tested on: Acinetobacter baumannii; assay: Potentiation of rifampicin-induced antibacterial activity against Acinetobacter baumannii ATCC 17978 assessed as rifampicin MIC at 2 to 8 microg/ml in high concentration of Ca++ and Mg++ containing media by Mueller-Hinton broth based assay; format: functional; details: dose 2-8 µg/ml
[31] = Cytotoxicity against human HepG2 cells assessed as cell viability at 9 uM relative to control; format: toxicity, cell-based; details: read-out: Activity
[32] = tested on: Acinetobacter baumannii; assay: Potentiation of rifampicin-induced antibacterial activity against Acinetobacter baumannii ATCC 17978 assessed as rifampicin MIC at 16 microg/ml in high concentration of Ca++ and Mg++ containing media by Mueller-Hinton broth based assay; format: functional; details: dose 16 µg/ml
[33] = tested on: Pseudomonas aeruginosa; assay: Antibacterial activity against Pseudomonas aeruginosa PAO1 in high concentration of Ca++ and Mg++ containing media by Mueller-Hinton broth based assay; format: functional

Question: What does the source list for `CCCCCCCCO[C@@H]1O[C@H](CN)[C@H](N)[C@H](OCc2ccc3ccccc3c2)[C@H]1N`?
Answer: MIC [1]: 32 µg/mL; MIC [2]: 16 µg/mL; MIC [3]: 8 µg/mL; fold change (FC) [4]: 64; fold change (FC) [5]: 1; MIC [6]: 16 µg/mL; MIC [7]: 4 µg/mL; fold change (FC) [8]: 256; MIC [9]: 2 µg/mL; MIC [10]: 8 µg/mL; viability at 9 µM [11]: 46.4%; MIC [12]: 64 µg/mL (≈ 149 µM); fold change (FC) [13]: 1; fold change (FC) [14]: 1; MIC [15]: 64 µg/mL (≈ 149 µM); fold change (FC) [16]: 128; MIC [17]: 2 µg/mL; fold change (FC) [18]: 64; MIC [19]: 8 µg/mL; MIC [20]: ≥ 64 µg/mL; MIC [21]: ≥ 64 µg/mL; fold change (FC) [22]: 2; fold change (FC) [23]: 2; MIC [24]: 4 µg/mL; fold change (FC) [25]: 32; fold change (FC) [26]: 64; fold change (FC) [27]: 8; MIC [28]: 2 µg/mL; fold change (FC) [29]: 64; MIC [30]: 4 µg/mL; viability at 9 µM [31]: 85%; MIC [32]: 16 µg/mL; MIC [33]: > 128 µg/mL

Reference: ChEMBL document CHEMBL5584201, “Amphiphilic tribasic galactosamines potentiate rifampicin in Gram-negative bacteria at low Mg++/Ca++concentrations” (Bioorg Med Chem Lett, 2024)
